# Test results reported in patent US8846331B2, “Asynchronous magnetic bead rotation sensing systems and methods” (The Regents of the University of Michigan, priority 2010, dated 2014).
# Assays:
# Type in all cases: cell-based, Escherichia coli
# [1] = system: E. coli; test: AMBR 16-well prototype, growth of E. coli on clusters of magnetic particles (FIG. 3d); conditions: 0, 2, 4 and 8 μg/mL antibiotic
# Source text: FIGS. 3a-f illustrates results from one variation of a multiwell prototype device using a 16-well disposable card. […] FIG. 3b illustrates exemplary results showing raw periodic laser intensity data corresponding to the rotation of the sample for one well; FIG. 3c is an image of a 16 sensor array AMBR system prototype that incorporates low-power lasers and phototransistors to measure rotational data (with black tray that supports the disposable card). FIG. 3d illustrates a graph of antibiotic susceptibility results for averaged and normalized data with E. coli bacteria.
# For example, when cell division occurs, a significant portion of the bacteria remain on the surface of the particles. Thus, a more reliable growth response may be detected (as cells are not all shed into the medium). […] Clusters may be readily detected and their rotation more easily optically resolved. […] This allows for response to antibiotics to be measured in a reproducible manner, which makes the technique more clinically relevant. FIGS. 3a-3f illustrate a prototype device that has been used as a proof-of-principle for the rotation of clusters and use of multiwell sample plates. The example shown in FIG. 3a is a 16-well disposable plate. Each well in the plate (which may also be referred to as a “card”) has been treated to contain a single cluster of magnetic particles that rotate as a group. […]
# [2] = system: uropathogenic E. coli; test: AMBR with self-assembled magnetic particle clusters in hanging droplet, MIC measurement; conditions: from FIGS. 47a and 47b, rotational period of clusters
# Source text: FIGS. 46a-c illustrates one example AMBR using a cluster formed in a well having a curved interface (in this example, a hanging droplet). […] This lensing effect may be used to amplify the rotational signal by magnifying the image through the droplet. […] An LED or laser light may be focused by the droplet curvature, magnifying the ‘image’ of the particle cluster a 100-fold. After the magnification, the rotational period can be observed and measured using a photodetector, thus observing a periodic signal corresponding to the rotational period of the cluster. FIG. 46b illustrates the change in cluster shape/size and rotation. The rotational period of the cluster changes accordingly: as the cluster itself expands (e.g., changing shape to have a larger diameter); as bacteria or other analytes attach to the cluster and/or expand/swell; or as the viscosity of the surrounding fluid changes. Viscosity may change if unbound cells divide and increase in number within the well. The rotational period of the cluster can be measured using the Fast Fourier Transform (FFT). The lower graphs in FIG. 46b show a shift in the peak observing the peak location. […]
# The self-assembled magnetic particles shown in FIG. 47a-g enabled rapid MIC measurements, and the determined values agreed with values obtained with the traditional microdilution method. […]
# [3] = system: uropathogenic E. coli isolate; test: MIC determination with the Vitek 2 system
# [4] = system: E. coli; test: AMBR multiwell card reader, rotational period growth curves (FIG. 9); conditions: FIG. 9, driving frequency 100 Hz
# Description: FIG. 9 illustrates the rotational period (in seconds) of rotating magnetic beads with attached E. coli versus time (in minutes) for various concentrations of antibiotic (Gentamicin).
# A clinical sample (e.g. blood, urine, etc) may be mixed with a Muller-Hinton (MH) or phosphate buffered saline solution that contains magnetic beads that are coated with antibodies specific to the pathogen of interest. The bacteria and beads are incubated together to allow for ample time to bind and if necessary, population growth of the bacteria. […] This solution (now containing only […]) is then placed into the disposable (preferably multiwell) plate, where the beads are asynchronously rotated in the card reader for detection/identification and antibiotic susceptibility testing, where the minimum inhibitory concentration will be determined. […] Finally, the magnetic particles are rotated in the asynchronous regime and monitored optically to determine cell growth (elongation and/or division). […]
# The asynchronous rotational period of the rotating cluster of magnetic particles may be measured using the light modulation that is produced when each laser beam (or other light) passes through the small magnetic bead cluster. […] From this, the rotation rate can be measured by simply tracking the peak-to-peak distance (period) of the modulated intensity. […]
# [5] = system: uropathogenic E. coli; test: AMBR droplet microfluidic platform, small cell-population growth response (AST); conditions: for change in rotational period (bacterial growth): monitored minimum one hour
# Source text: Asynchronous magnetic bead rotation (AMBR) may be performed on hanging droplets and on oil/water emulsions (e.g., droplets of water including the magnetic beads and analyte suspended in oil). For example an AMBR biosensor may use a droplet microfluidic platform that enables single cell and small cell population growth measurements for applications aimed at rapid antimicrobial susceptibility testing (“AST”). […] Growth was observed below the MIC, and no growth was observed above the MIC. A 52% change in the sensor signal (i.e. rotational period) was observed within 15 minutes, thus allowing AST measurements to be performed within minutes.
# The microfluidic platform typically forms reproducibly or uniform-sized droplets of aqueous solution (e.g., media) including magnetic particles. […] In this example, the continuous phase consisted of mineral oil with 1% SPAN 80 (v/v). For bead (magnetic particle) characterization experiments, the aqueous phase consisted of PBS solution: PBS with 1% Pluronic F-68 and 0.1% BSA. For biological experiments, the aqueous phase consisted of MH broth solution: MH with 1% Pluronic F-68 and 0.1% BSA, which will be referred to as MH-PB.
# In one example, using the microfluidic device described above and in FIGS. 23a and 23b, experiments were conducted on an Olympus IX71 inverted microscope. The microfluidic device was placed inside custom-built electromagnet coils that were integrated on the microscope stage (see, e.g., FIG. 23c). In this example, the rotating magnetic field was generated with a custom LabView program and data acquisition board (NI PCI-6221). The magnetic field driving frequency range was 0.1 Hz to 1 kHz, and the magnetic field strength was 0.9 mT, as measured with a 3-axis magnetic field probe (Senis Gmbh, C-H3A-2m).
# Magnetic bead characterization experiments were conducted at 21° C. Single cell experiments were conducted at 21° C., with a 100× oil immersion objective. The magnetic field driving frequency was set at 500 Hz for control and growth experiments. One-minute videos at 15 frames per second (fps) were taken in 5-minute intervals with a digital camera. Small cell-population experiments were conducted at 35° C., with a 40× objective. The microfluidic device was placed on an ITO slide that was heated and maintained at a set temperature, 35+0.2° C. This temperature was monitored by a thermocouple that was coupled to the surface of the slide with a thermally conducting silver paste, Arctic Silver 5 (ARCTIC SILVER). The magnetic field driving frequency for small cell-population control and growth experiments was set at 50 Hz, and continuous videos were taken for a minimum of 5 hours at 2 fps. For small cell-population control and antibiotic response experiments, 1-minute videos were taken at 20 fps in either 5-minute or 20-minute intervals.
# As mentioned, movies were captured with a digital camera (Basler, piA640-210 gm). The videos were analyzed using ImageJ (for example, see FIG. 23d). The rotational frequency of the bead complex was determined by monitoring the fluctuations in intensity profile at the target area of interest using ImageJ s ‘plot z-axis profile’ functionality. This intensity plot was analyzed by applying a Fast Fourier Transform (FFT) to the raw ImageJ data in MATLAB. The experimental error in determining the rotational period was designated as the FFT peak's full width at half max (FWHM) of the amplitude signal. […]
compound,measurement,setting,value
CC1(C)S[C@@H]2[C@H](NC(=O)[C@H](N)c3ccccc3)C(=O)N2[C@H]1C(=O)O [ampicillin],effect on growth of E. coli on clusters (rotational period),[1],acts as a growth accelerating agent
[H]/N=C(/N)N[C@H]1[C@H](O)[C@@H](O)[C@H](O[C@@H]2O[C@@H](C)[C@](O)(C=O)[C@H]2O[C@@H]2O[C@@H](CO)[C@H](O)[C@@H](O)[C@@H]2NC)[C@@H](N/C(N)=N\[H])[C@@H]1O [streptomycin],MIC,"[2]; Escherichia coli, read-out: MIC measured with AMBR clusters",8 µg/mL
same,MIC,"[3]; Escherichia coli, isolate of the magnetic particle cluster experiments (FIGS. 47a-b), read-out: clinical (reference) MIC as determined with Vitek 2",16 µg/mL
gentamicin,MIC measured with AMBR clusters,[2],2 µg/mL
same,minimum inhibitory concentration (MIC) from AMBR growth curves,[4],2 µg/mL
same,change in rotational period (bacterial growth),[5]; 0.5 μg/mL gentamicin,increase in rotational period
same,change in rotational period (bacterial growth),[5]; 2 μg/mL gentamicin,No substantial change in the rotational period
same,change in rotational period (bacterial growth),[5]; 4 μg/mL gentamicin,No substantial change in the rotational period
same,difference in rotational period between bacteria treated above and below the MIC,[5]; after 15 minutes,52%
same,difference in rotational period between bacteria treated above and below the MIC,[5]; within 25 minutes,100%
same,MIC as determined with the Vitek 2 system,[3]; isolate of the droplet microfluidic experiments,1 µg/mL
same,clinical (reference) MIC as determined with Vitek 2,[3]; isolate of the magnetic particle cluster experiments (FIGS. 47a-b),2 µg/mL
